# From US20250154169A1, “COMPOUNDS AND METHODS FOR MODULATING SPLICING” (REMIX THERAPEUTICS INC., priority 2021, published 2025)
# Counter-ions that a name gives are not always drawn.
# How the values were obtained:
# HTT = assay: Protein abundance, HiBit-assay system (Promega), HTT; assay type: cell-based; conditions: Table 6; HiBiT-modified K562 cells, 24 hours
# Source text: In some embodiments, a compound of Formula (I) or (II) or a pharmaceutically acceptable salt thereof, e.g., as described herein, modulates the expression of a target protein (e.g., HTT or MYB) in a reference cell or sample. In an embodiment, a compound of Formula (I) or (II) or a pharmaceutically acceptable salt thereof, e.g., as described herein, increases the expression of a target protein (e.g., HTT or MYB) in a reference cell or sample. In an embodiment, a compound of Formula (I) or (II) or a pharmaceutically acceptable salt thereof, e.g., as described herein, decreases the expression of a target protein (e.g., HTT or MYB) in a reference cell or sample. The effect of an exemplary compound of Formula (I) or (II) on protein abundance may be measured using a standard assay for measuring protein abundance, such as the HiBit-assay system (Promega). In this assay, percent response for each respective cell line may be as calculated at each compound concentration as follows: % response=100*(S−PC)/(NC−PC). For the normalized response at each concentration, a four-parameter logistical regression may be fit to the data and the response may be interpolated at the 50% value to determine a concentration for protein abundance at 50% (IC50) an untreated control. In an embodiment, a compound of Formula (I) or (II) or a pharmaceutically acceptable salt thereof, e.g., as described herein, has a protein abundance response less than 100 nM. In an embodiment, a compound of Formula (I) or (II) or a pharmaceutically acceptable salt thereof, e.g., as described herein, has a protein abundance response between 100-1000 nM. In an embodiment, a compound of Formula (I) or (II) or a pharmaceutically acceptable salt thereof, e.g., as described herein, has a protein abundance response greater than 1000 nM. In an embodiment, a compound of Formula (I) or (II) or a pharmaceutically acceptable salt thereof, e.g., as described herein, has a protein abundance response greater than 10 uM. In an embodiment, a compound of Formula (I) or (II) or a pharmaceutically acceptable salt thereof, e.g., as described herein, modulates the protein abundance of a target protein by about 1%, 5%, 10%, 15%, 20%, 25%, 30%, 35%, 40%, 45%, 50%, 55%, 60%, 65%, 70%, 75%, 80%, 85%, 90%, 95%, 99% or more, e.g., compared with a reference compound.
# SMN2 mRNA = assay: Splicing RT-qPCR gene panel, SMN2 canonical junction (CJ) mRNA; assay type: cell-based, human; conditions: Homo sapiens, Tables 4A/4B, read-out: SMN2 (IC50, decrease in CJ mRNA, gene panel)
# Summary of the method: (§1)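 First, A673 cells adhered 24 h before dosing, while K562 cells were plated and dosed directly. Both lines were then exposed to compound for 24 h at 37 °C, 5% CO2, top concentration 10 uM. Finally, lysates underwent RT-qPCR of the canonical junction, with ΔΔCt-based relative quantification.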
# K562 cells = assay: Cell Titer Glo 2.0 cell viability assay, K562; assay type: cell-based; conditions: Homo sapiens, 72 hours incubation
# Procedure: Compounds described herein were screened for toxicity in K562 (human chronic myelogenous leukemia) and SH-SY5Y (human neuroblastoma) cells using a Cell Titer Glo 2.0 assay.
# • Promega CellTiter-Glo® 2.0 Cell Viability Assay (cat #G9241) • Corning 384-well TC-treated microplates (cat #3570)
# Cells were plated at 500 cells/well (K562 cells) in 45 μL of IMDM supplemented with 10% FBS in a 384-well opaque plate. Wells containing only medium were used as a blank control. Test compounds (e.g., compounds of Formula (I) or (II)) were first serially diluted in DMSO then diluted 1:100 with EIDM+10% FBS. The final concentration of DMSO was 0.1% in each well. The cells were incubated for 72 hours at 37° C. and 5% CO2 before assaying with Cell Titer Glo 2.0 reagent.
# Target C mRNA = assay: Splicing RT-qPCR gene panel, Target C canonical junction (CJ) mRNA; assay type: cell-based, human; conditions: Homo sapiens, Tables 4A/4B, read-out: Target C (IC50, decrease in CJ mRNA, gene panel)
# Summary of the method: as §1
IC50 (HTT),IC50 (SMN2 mRNA),GI50 (K562 cells),IC50 (Target C mRNA),Compound
100 to 1000 nM,100 to 1000 nM,100 to 1000 nM,> 10000 nM,Cc1cn2nc(NC(=O)c3ccc(C4CCNCC4)c4cc(C)oc34)cc(C)c2n1 [Compound 118]
1000 to 10000 nM,100 to 1000 nM,1000 to 10000 nM,> 10000 nM,Cc1cn2nc(NC(=O)c3ccc(C4CCNCC4)c4ccoc34)cc(C)c2n1 [Compound 119]
1000 to 10000 nM,100 to 1000 nM,1000 to 10000 nM,1000 to 10000 nM,Cc1cn2cc(NC(=O)c3ccc(N4CCNCC4)c4nc(C)oc34)cc(F)c2n1 [Compound 140]
100 to 1000 nM,< 100 nM,100 to 1000 nM,100 to 1000 nM,Cc1cn2cc(NC(=O)c3ccc(N4CCNCC4)c4oc(C)nc34)cc(F)c2n1 [Compound 141]
100 to 1000 nM,< 100 nM,100 to 1000 nM,100 to 1000 nM,Cc1cn2cc(NC(=O)c3ccc(N4CCNCC4)c4cc(C)oc34)cc(F)c2n1 [Compound 142]
< 100 nM,< 100 nM,100 to 1000 nM,100 to 1000 nM,"Cc1cn2cc(NC(=O)c3ccc(N4CCNCC4)c4cn(C)nc34)cc(F)c2n1 [Compound 143, N-{8-fluoro-2-methylimidazo[1,2-a]pyridin-6-yl}-2-methyl-4-(piperazin-1-yl) indazole-7-carboxamide]"
1000 to 10000 nM,< 100 nM,,100 to 1000 nM,Cc1cn2cc(NC(=O)c3ccc(C4CCNCC4)c4cc(C)oc34)cc(F)c2n1 [Compound 145]
1000 to 10000 nM,100 to 1000 nM,1000 to 10000 nM,1000 to 10000 nM,Cc1cn2nc(NC(=O)c3ccc(N4CCNCC4)c4cc(C)oc34)cc(C)c2n1 [Compound 148]
1000 to 10000 nM,< 100 nM,100 to 1000 nM,> 10000 nM,Cc1cn2cc(NC(=O)c3ccc(C4CCNCC4)c4ccoc34)cc(F)c2n1 [Compound 149]
> 10000 nM,< 100 nM,100 to 1000 nM,1000 to 10000 nM,Cc1cn2cc(NC(=O)c3ccc(N4CCN(C)CC4)c4cc(C)oc34)cc(F)c2n1 [Compound 189]
100 to 1000 nM,100 to 1000 nM,100 to 1000 nM,1000 to 10000 nM,Cc1cn2cc(NC(=O)c3ccc(N4CCNC(C)C4)c4cc(C)oc34)cc(F)c2n1 (stereo not drawn) [Compound 190]
,< 100 nM,100 to 1000 nM,1000 to 10000 nM,Cc1cn2cc(NC(=O)c3ccc(N4CCN(C)C(C)C4)c4cc(C)oc34)cc(F)c2n1 (stereo not drawn) [Compound 191]
1000 to 10000 nM,< 100 nM,100 to 1000 nM,1000 to 10000 nM,CCC1CN(c2ccc(C(=O)Nc3cc(F)c4nc(C)cn4c3)c3oc(C)cc23)CCN1 (stereo not drawn) [Compound 192]
1000 to 10000 nM,< 100 nM,100 to 1000 nM,> 10000 nM,Cc1cn2cc(NC(=O)c3ccc(N4CCNC(C)(C)C4)c4cc(C)oc34)cc(F)c2n1 [Compound 193]
1000 to 10000 nM,,100 to 1000 nM,,"CCn1cc2c(N3CC[C@@H](NC)C3)ccc(C(=O)Nc3cc(Cl)c4nc(C)cn4c3)c2n1 [Compound 556, N-{8-chloro-2-methylimidazo[1,2-a]pyridin-6-yl}-2-ethyl-4-[(3R)-3-(methylamino)pyrrolidin-1-yl]indazole-7-carboxamide]"
100 to 1000 nM,,< 100 nM,,"CCn1cc2c(N3CCC(N)(CC)CC3)cc(F)c(C(=O)Nc3cc(F)c4nc(C)cn4c3)c2n1 [Compound 557, 4-(4-amino-4-ethylpiperidin-1-yl)-2-ethyl-6-fluoro-N-{8-fluoro-2-methylimidazo[1,2-a]pyridin-6-yl}indazole-7-carboxamide]"
100 to 1000 nM,,< 100 nM,,"CCn1cc2c(N3CCC(N[C@H]4C[C@@H](O)C4)CC3)ccc(C(=O)Nc3cc(F)c4nc(C)cn4c3)c2n1 [Compound 559, 2-ethyl-N-{8-fluoro-2-methylimidazo[1,2-a]pyridin-6-yl}-4-(4-{[(1s,3s)-3-hydroxycyclobutyl]amino}piperidin-1-yl) indazole-7-carboxamide]"
1000 to 10000 nM,,< 100 nM,,"CCn1cc2c(N3CCC(N[C@H]4C[C@H](O)C4)CC3)ccc(C(=O)Nc3cc(F)c4nc(C)cn4c3)c2n1 [Compound 560, 2-ethyl-N-{8-fluoro-2-methylimidazo[1,2-a]pyridin-6-yl}-4-(4-{[(1r,3r)-3-hydroxycyclobutyl]amino}piperidin-1-yl) indazole-7-carboxamide]"
> 10000 nM,,1000 to 10000 nM,,"Cc1cn2cc(NC(=O)c3ccc(N4CC[C@@H](N5CCNCC5)C4)c4cn(C)nc34)cc(F)c2n1 [Compound 562, N-{8-fluoro-2-methylimidazo[1,2-a]pyridin-6-yl}-2-methyl-4-[(3R)-3-(piperazin-1-yl)pyrrolidin-1-yl]indazole-7-carboxamide hydrochloride]"
1000 to 10000 nM,,1000 to 10000 nM,,"CCn1cc2c(N3CCNCC3)ccc(C(=O)Nc3cc(F)c4nc(C)c(F)n4c3)c2n1 [Compound 565, N-{3,8-difluoro-2-methylimidazo[1,2-a]pyridin-6-yl}-2-ethyl-4-(piperazin-1-yl) indazole-7-carboxamide; trifluoroacetic acid]"
1000 to 10000 nM,,100 to 1000 nM,,"CCn1cc2c(N3CCNCC3)ccc(C(=O)Nc3cn4cc(C)nc4c(Oc4ccccc4)n3)c2n1 [Compound 566, 2-ethyl-N-{2-methyl-8-phenoxyimidazo[1,2-a]pyrazin-6-yl}-4-(piperazin-1-yl) indazole-7-carboxamide]"
1000 to 10000 nM,,100 to 1000 nM,,"Cc1cn2cc(NC(=O)c3ccc(N4CC[C@@H](NC56CC(C5)C6)C4)c4cn(C)nc34)cc(F)c2n1 [Compound 568, 4-[(3R)-3-{bicyclo[1.1.1]pentan-1-ylamino}pyrrolidin-1-yl]-N-{8-fluoro-2-methylimidazo[1,2-a]pyridin-6-yl}-2-methylindazole-7-carboxamide]"
1000 to 10000 nM,,100 to 1000 nM,,"CCn1cc2c(N3CCC(NC4CC4)C3)cc(F)c(C(=O)Nc3cc(F)c4nc(C)cn4c3)c2n1 (stereo not drawn) [Compound 569, 4-[3-(cyclopropylamino)pyrrolidin-1-yl]-2-ethyl-6-fluoro-N-{8-fluoro-2-methylimidazo[1,2-a]pyridin-6-yl}indazole-7-carboxamide]"
100 to 1000 nM,,100 to 1000 nM,,"Cc1cn2cc(NC(=O)c3c(F)cc(N4CC[C@@H](NC5CC5)C4)c4cn(C)nc34)cc(F)c2n1 [Compound 571, 4-[(3R)-3-(cyclopropylamino)pyrrolidin-1-yl]-6-fluoro-N-{8-fluoro-2-methylimidazo[1,2-a]pyridin-6-yl}-2-methylindazole-7-carboxamide]"
> 10000 nM,,1000 to 10000 nM,,"Cc1cn2cc(NC(=O)c3ccc(N4CC[C@@H](NCc5cnc(Cl)nc5)C4)c4cn(C)nc34)cc(F)c2n1 [Compound 573, 4-[(3R)-3-{[(2-chloropyrimidin-5-yl)methyl]amino}pyrrolidin-1-yl]-N-{8-fluoro-2-methylimidazo[1,2-a]pyridin-6-yl}-2-methylindazole-7-carboxamide]"
> 10000 nM,,100 to 1000 nM,,Cc1cn2cc(NC(=O)c3ccc(N4CCC(C)(NC(C)C)C4)c4cn(C)nc34)cc(F)c2n1 (stereo not drawn) [Compound 574]
1000 to 10000 nM,,100 to 1000 nM,,CCn1cc2c(N3CCNCC3)ccc(C(=O)Nc3cc(F)c4ncccc4c3)c2n1 [Compound 575]

Compound,IC50 (HTT),IC50 (SMN2 mRNA),GI50 (K562 cells),IC50 (Target C mRNA)
"Cc1cn2cc(NC(=O)c3ccc(N4CC5NC5C4)c4cn(C)nc34)cc(F)c2n1 (stereo not drawn) [Compound 563, 4-{3,6-diazabicyclo[3.1.0]hexan-3-yl}-N-{8-fluoro-2-methylimidazo[1,2-a]pyridin-6-yl}-2-methylindazole-7-carboxamide]",100 to 1000 nM,,100 to 1000 nM,
"Cc1cn2cc(NC(=O)c3ccc(N4C5CNCC54)c4cn(C)nc34)cc(F)c2n1 (stereo not drawn) [Compound 564, 4-{3,6-diazabicyclo[3.1.0]hexan-6-yl}-N-{8-fluoro-2-methylimidazo[1,2-a]pyridin-6-yl}-2-methylindazole-7-carboxamide]",100 to 1000 nM,,100 to 1000 nM,
